Assay [1] concerns EDG2-overexpressing cardiomyocytes. In words: Shortening measurements (contractility) in single isolated cardiomyocytes after Ad-EDG2-GFP gene transfer. In kind it is cell-based, rabbit. The procedure:
(§1) Contractility of infected cardiomyocytes was measured by an electro-optical monitoring system connected to online digitalized assessment of amplitude and velocity of shortening and of relaxation. Transgene-positive cardiomyocytes were identified by co-expression of GFP under fluorescent light. After the contraction amplitude reached stability, increasing concentrations of isoproterenol were applied at constant concentrations of lysophosphatidic acid (LPA; 10^−5 mol/l); or increasing LPA concentrations were added to constant concentrations of isoproterenol (10^−8 mol/l).
(§2) In order to investigate the effects of EDG2 on cardiomyocyte contractility, fractional shortening and velocity of shortening in single, isolated cardiomyocytes from failing hearts after ex vivo gene transfer was measured.
(§3) Single calcium-tolerant ventricular cardiomyocytes were isolated from failing White New Zealand rabbit hearts. Briefly, the hearts were perfused and digested with collagenase. The isolated cardiomyocytes were cultured in modified M199 on laminin-precoated dishes (5–10 μg/cm^2) at a density of 1.5×10^5 cells per cm^2 (at 5% CO2 and 37° C.). For contraction experiments, the cells were infected with adenovirus (multiplicity of infection (moi) 1 pfu/cell) 5 hours after plating. 50–60% of the infected cardiomyocytes expressed the transgene at this titer.

Assay [2] deals with control GFP cardiomyocytes. In words: Shortening measurements (contractility) in single isolated cardiomyocytes after Ad-GFP gene transfer (control). Particulars: increasing concentrations of LPA after prestimulation with isoproterenol 10^-8 mol/l; control GFP group; FIG. 2. Format: cell-based, rabbit. The procedure: as §1, §2, §3
In a further assay the target is T1, human EDG2 (Homo sapiens, UniProt Q92633).
T1 construct: host or cells: HEK293 cells expressing human EDG2
As to conditions: HEK293 cells expressing the human EDG2 protein; LPA concentration dependent; cited from earlier work.

T1 sequence (Q92633 whole entry): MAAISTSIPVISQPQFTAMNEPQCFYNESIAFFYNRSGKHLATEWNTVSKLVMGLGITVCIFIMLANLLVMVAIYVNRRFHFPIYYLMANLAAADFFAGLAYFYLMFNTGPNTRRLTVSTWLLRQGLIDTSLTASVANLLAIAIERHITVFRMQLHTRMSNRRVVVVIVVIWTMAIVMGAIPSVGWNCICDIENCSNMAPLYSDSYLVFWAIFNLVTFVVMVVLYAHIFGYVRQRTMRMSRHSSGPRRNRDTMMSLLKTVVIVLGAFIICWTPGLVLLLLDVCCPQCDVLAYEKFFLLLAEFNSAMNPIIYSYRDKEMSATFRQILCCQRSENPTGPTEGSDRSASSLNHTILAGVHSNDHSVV

Turning to `CC(C)NCC(O)c1ccc(O)c(O)c1` (stereo not drawn) [isoproterenol], the “inotropic effect (fractional shortening)” value in assay [1] (increasing concentrations of isoproterenol at constant LPA 10^-5 mol/l, EDG2-overexpressing versus control, FIG. 1) is “significantly lower positively inotropic effect”.
For the compound lysophosphatidic acid [LPA], in assay [1] (LPA 10^-5 mol/l, isolated cardiomyocytes from failing hearts), the “effect on basal contractility of cardiomyocytes” value is recorded as “does not alter basal contractility”. Further, the “effect on contractility of cardiomyocytes” value in assay [1] (absence of prestimulation with isoproterenol) is recorded as “no effect on the contractility”. The “inotropic effect (fractional shortening)” value is “significant negatively inotropic effect” in assay [1] (increasing concentrations of LPA after prestimulation with isoproterenol 10^-8 mol/l, FIG. 2) and “no effect” in assay [2]. Also, the “response in serum response element reporter gene assay” value on human EDG2 is recorded as “elevated response”.
